Columns and labels:
Assay type in all cases: in vivo
Diamondback moth = experiment: Insecticidal activity against Diamondback moth, Airbrush spray on cabbage leaf discs; conditions: Plutella xylostella, foliar, 72 h, 3 days after the administration; for mortality at 0.156 µg/mL: 0.156 mg/L, read-out: Mortality rate (%, 3 days after the administration) 0.156 mg/L; for mortality at 0.156 µg/mL / mortality at 0.313 µg/mL / mortality at 10 µg/mL: Diamondback moth; for mortality at 0.313 µg/mL: 0.313 mg/L, read-out: Mortality rate (%, 3 days after the administration) 0.313 mg/L; for mortality at 1.25 µg/mL: 1.25 mg/L, 3rd-instar larvae, read-out: mortality rate against Diamondback moth; for mortality at 10 µg/mL: 10 mg/L, read-out: Mortality rate (%, 3 days after the administration) 10 mg/L
Method: (§1) After the compound to be determined was dissolved in a mixed solvent of acetone/methanol (1:1), it was diluted with water containing 0.1% (wt) Tween-80 to a desired concentration.
(§2) Mythimna separata, Diamondback moth, Chilo suppressalis, Spodoptera exigua, Myzus persicae, and Franklinella occidentalis were used as targets, and the activity was tested by an Airbrush spray method.
Determination method: cabbage leaves were formed into leaf discs having a diameter of 2 cm using a puncher, and the front and back of each leaf disc were sprayed under an Airbrush spray treatment pressure of 10 psi (approximate to 0.7 kg/cm^2) and with a spray volume of 0.5 mL. After drying in the shade, 10 3rd-instar larvae were inoculated for each treatment, and each treatment was repeated for 3 times. After the treatment, the leaf discs were placed into an observation chamber at 25° C. and with a relative humidity of 60% to 70%, and the number of living larvae was investigated 3 days after the administration of the compounds, and the mortality rates were calculated.

Spodoptera exigua = experiment: Insecticidal activity against Spodoptera exigua, leaf disc dipping feeding method; conditions: foliar, 72 h, 0.625 mg/L, 3 days after the administration, read-out: mortality rate against Spodoptera exigua
Method: After the compound to be determined was dissolved in a mixed solvent of acetone/methanol (1:1), it was diluted with water containing 0.1% (wt) Tween-80 to a desired concentration. […]
Determination method: the activity was tested by using a leaf disc dipping feeding method. Leaf discs were dipped in a drug solution for 10 s, and placed in a culture dish after being air-dried, there were 4 discs in each dish, and a filter paper was placed in the culture dish for moisture retention. 10 test insects of Spodoptera exigua were introduced to each dish, with 3 replicates.
They were placed in a light incubator for culture at a temperature of 25° C. and an illumination of 14hL:10hD. On the 1st, 2nd, and 3rd day after the administration, the number of dead Spodoptera exigua was investigated and the mortality rate was calculated.

cat flea = experiment: Insecticidal experiment on cat flea, thin film in culture dish; conditions: Ctenocephalides felis, 72 h, read-out: mortality rate, cat flea
Method: 4 mg of the compound to be determined was dissolved in 40 mL of acetone to obtain an acetone solution with a concentration of 100 mg/L. 400 μL of the drug solution was applied on the bottom and sides of a culture dish with an inner diameter of 5.3 cm, then after acetone was evaporated, a thin film of the compound of the present invention was made on the inner wall of the culture dish. The inner wall of the culture dish used was 40 cm^2, and the treatment dosage was 1 μg/cm^2. 10 adult cat fleas (mixed male and female) were put into the dish, and it was stored in a constant-temperature room at 25° C. after being covered. The number of dead insects after 72 h was checked and the mortality rate was calculated. The experiment was repeated for 3 times.

[1] = tested on: Franklinella occidentalis; experiment: Insecticidal activity against Franklinella occidentalis nymphs, sprayed bean leaves
Method: as §1, §2
Determination method: fresh bean leaves cultivated in a greenhouse were selected, a hand-held Airbrush sprayer was used to spray uniformly, each treatment was 1 mL, and after being air-dried naturally, the leaves were placed in a finger-shaped tube. Neat and healthy Franklinella occidentalis nymphs were introduced, there were 15 nymphs for each treatment, 3 replicates were set for the experiment, and water treatment was set as a blank control. After the treatment, the leaves were put into an indoor culture room for culture at 24° C., a relative humidity of 60-70%, and natural light. After 72 h, the number of live insects was investigated and the mortality rate was calculated.

Mythimna separata = experiment: Insecticidal activity against Mythimna separata, Airbrush spray on maize leaf pieces; conditions: 72 h, 0.05 mg/L, 3 days after the administration, 3rd-instar larvae, read-out: mortality rate against Mythimna separata
Method: as §1, §2
Determination method: maize leaves were cut into 2 cm leaf pieces, and the front and back of each leaf piece were sprayed under an Airbrush spray treatment pressure of 10 psi (approximate to 0.7 kg/cm^2) and with a spray volume of 0.5 mL. After drying in the shade, 10 3rd-instar larvae were inoculated for each treatment, and each treatment was repeated for 3 times. After the treatment, the leaf pieces were put into an observation chamber at 25° C. and with a relative humidity of 60% to 70%, and the number of living larvae was investigated 3 days after the administration of the compounds, and the mortality rates were calculated.

Myzus persicae = experiment: Insecticidal activity against Myzus persicae, Airbrush spray on cabbage leaves; conditions: 50 mg/L, after 48 h, read-out: mortality rate against Myzus persicae
Method: as §1, §2
Determination method: a culture dish with a diameter of 6 cm was taken, the bottom of the dish was covered by a layer of filter paper, and an appropriate amount of tap water was added to moisturize the paper. Cabbage leaves with an appropriate size (the diameter was about 3 cm) and 15-30 aphids grown were cut from cabbage plants used to culture Myzus persicae, winged aphids and aphids on the front of the leave were removed, and it was placed in the culture dish while the back of the leave was upward. The pressure of airbrush spray treatment was 10 psi (about 0.7 kg/cm^2), the liquid spray volume was 0.5 mL, and there were 3 replicates for each treatment. After the treatment, the leave was put into an observation room for culture at 25° C. and a relative humidity of 60-70%. After 48 h, the number of live insects was investigated and the mortality rate was calculated.

Chilo suppressalis = experiment: Insecticidal activity against Chilo suppressalis, sprayed rice stems; conditions: 72 h, 0.625 mg/L, 3 days after the administration, 3rd-instar larvae, read-out: mortality rate against Chilo suppressalis
Method: as §1, §2
Determination method: 1) Preparation of rice seedlings: rice was cultured in a plastic small cup with a diameter of 4.5 cm and a height of 4 cm in a constant temperature room (the temperature was 26-28° C., the relative humidity was about 60-80%, and the illumination was 16hL:8hD), when the rice grown to a 4-5 leaf stage, robust and uniformly grown rice seedlings were selected for pharmaceutical treatment, and 3 replicates were set for each treatment. 2) Preparation of test insects: 3rd-instar larvae of Chilo suppressalis were continuously reared indoors. 3) Rice stems were sprayed and insects were introduced. A spray method was used to treat whole rice seedlings with uniform spray, and each treatment was 15 mL. Blank controls were treated firstly, and then the above operation was repeated in an order of experimental concentrations from low to high. After the spray treatment of the rice seedlings, they were placed in the shade to air-dry drug liquid, about 5 cm of the stem from a basal part of the stem was cut and fed to the test insects. A glass culture dish with a diameter of 90 mm was prepared, filter paper was placed on the bottom of the dish, then water was added to moisturize. About 5 rice stems were placed in each dish, 10 larvae were introduced, and the culture dish was closed with non-woven fabric and placed in the constant-temperature room for culture. 3 days after the administration, the number of residual live insects was investigated.

C#CCN(C(=O)c1ccccc1)c1cccc(C(=O)Nc2c(Br)cc(C(F)(C(F)(F)F)C(F)(F)F)cc2C(F)(F)F)c1F [Compound 31]
97.78%: Mortality rate (%, 3 days after the administration) 10 mg/L [1]
100%: mortality at 0.156 µg/mL (Diamondback moth) | mortality at 0.313 µg/mL (Diamondback moth) | mortality at 10 µg/mL (Diamondback moth) | Mortality rate (%, 3 days after the administration) 100 mg/L [1]
> 90%: mortality at 1.25 µg/mL (Diamondback moth) | mortality at 0.625 µg/mL (Spodoptera exigua) | mortality at 1 µg/cm2 (cat flea) | mortality at 0.05 µg/mL (Mythimna separata) | mortality at 50 µg/mL (Myzus persicae) | mortality at 0.625 µg/mL (Chilo suppressalis)

C#CCN(C(=O)c1ccc(F)cc1)c1cccc(C(=O)Nc2c(Br)cc(C(F)(C(F)(F)F)C(F)(F)F)cc2C(F)(F)F)c1F [Compound 35]
> 90%: mortality at 1.25 µg/mL (Diamondback moth) | mortality at 0.625 µg/mL (Spodoptera exigua) | mortality at 1 µg/cm2 (cat flea) | mortality at 0.05 µg/mL (Mythimna separata) | mortality at 50 µg/mL (Myzus persicae) | mortality at 0.625 µg/mL (Chilo suppressalis)
100%: mortality at 0.156 µg/mL (Diamondback moth) | mortality at 0.313 µg/mL (Diamondback moth) | mortality at 10 µg/mL (Diamondback moth) | Mortality rate (%, 3 days after the administration) 10 mg/L [1] | Mortality rate (%, 3 days after the administration) 100 mg/L [1]

C#CCN(C(=O)c1ccc(F)cc1)c1cccc(C(=O)Nc2c(I)cc(C(F)(C(F)(F)F)C(F)(F)F)cc2C(F)(F)F)c1F [Compound 36]
95.56%: Mortality rate (%, 3 days after the administration) 10 mg/L [1]
> 90%: mortality at 1.25 µg/mL (Diamondback moth) | mortality at 0.625 µg/mL (Spodoptera exigua) | mortality at 1 µg/cm2 (cat flea) | mortality at 0.05 µg/mL (Mythimna separata) | mortality at 50 µg/mL (Myzus persicae) | mortality at 0.625 µg/mL (Chilo suppressalis)
100%: mortality at 0.156 µg/mL (Diamondback moth) | mortality at 0.313 µg/mL (Diamondback moth) | mortality at 10 µg/mL (Diamondback moth) | Mortality rate (%, 3 days after the administration) 100 mg/L [1]

C#CCN(C(=O)c1ccc(F)nc1)c1cccc(C(=O)Nc2c(Br)cc(C(F)(C(F)(F)F)C(F)(F)F)cc2C(F)(F)F)c1F [Compound 47]
100%: mortality at 0.156 µg/mL (Diamondback moth) | mortality at 0.313 µg/mL (Diamondback moth) | mortality at 10 µg/mL (Diamondback moth) | Mortality rate (%, 3 days after the administration) 10 mg/L [1] | Mortality rate (%, 3 days after the administration) 100 mg/L [1]
> 90%: mortality at 1.25 µg/mL (Diamondback moth) | mortality at 0.625 µg/mL (Spodoptera exigua) | mortality at 1 µg/cm2 (cat flea) | mortality at 0.05 µg/mL (Mythimna separata) | mortality at 50 µg/mL (Myzus persicae) | mortality at 0.625 µg/mL (Chilo suppressalis)

C#CCN(C(=O)c1ccc(F)nc1)c1cccc(C(=O)Nc2c(I)cc(C(F)(C(F)(F)F)C(F)(F)F)cc2C(F)(F)F)c1F [Compound 48]
> 90%: mortality at 1.25 µg/mL (Diamondback moth) | mortality at 0.625 µg/mL (Spodoptera exigua) | mortality at 1 µg/cm2 (cat flea) | mortality at 0.05 µg/mL (Mythimna separata) | mortality at 50 µg/mL (Myzus persicae) | mortality at 0.625 µg/mL (Chilo suppressalis)
100%: mortality at 0.156 µg/mL (Diamondback moth) | mortality at 0.313 µg/mL (Diamondback moth) | mortality at 10 µg/mL (Diamondback moth) | Mortality rate (%, 3 days after the administration) 10 mg/L [1] | Mortality rate (%, 3 days after the administration) 100 mg/L [1]
